From ChEMBL document CHEMBL1201862, “PubChem BioAssay data set” (2004)
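Compound exposure: 48 hours, 5 concentrations, 96-well plates. GI50 is the concentration that inhibits growth by half.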 Activity calls are given as the source filed them. No stated cut-off is given here; in the data, active = GI50 up to about 1.1 µM and inactive = higher.

Columns and labels:
Test in all cases: NCI anticancer screen, dose series, 48 h
IGROV-1 = tested on: IGROV-1
SK-MEL-2 = tested on: SK-MEL-2
ACHN = tested on: ACHN
HOP-92 = tested on: HOP-92
HCT-116 = tested on: HCT-116
SW-620 = tested on: SW-620
SNB-19 = tested on: SNB-19
A498 = tested on: A498
M14 = tested on: M14
K562 = tested on: K562
HCT-15 = tested on: HCT-15
DU-145 = tested on: DU-145
NCI-H226 = tested on: NCI-H226
PC-3 = tested on: PC-3
UO-31 = tested on: UO-31
Hs-578T = tested on: Hs-578T
CCRF-CEM = tested on: CCRF-CEM
MCF7 = tested on: MCF7
LOX IMVI = tested on: LOX IMVI
786-0 = tested on: 786-0
BT-549 = tested on: BT-549
SN12C = tested on: SN12C
MOLT-4 = tested on: MOLT-4
NCI-H460 = tested on: NCI-H460
NCI-H23 = tested on: NCI-H23
MDA-N = tested on: MDA-N
HL-60 = tested on: HL-60
SNB-75 = tested on: SNB-75
SF-268 = tested on: SF-268
SR = tested on: SR
HT-29 = tested on: HT-29
Malme-3M = tested on: Malme-3M
OVCAR-8 = tested on: OVCAR-8
MDA-MB-435 = tested on: MDA-MB-435
RXF 393 = tested on: RXF 393
SF-539 = tested on: SF-539
SF-295 = tested on: SF-295
RPMI-8226 = tested on: RPMI-8226
OVCAR-5 = tested on: OVCAR-5
SK-MEL-5 = tested on: SK-MEL-5
SK-MEL-28 = tested on: SK-MEL-28
COLO 205 = tested on: COLO 205
HOP-62 = tested on: HOP-62
HCC 2998 = tested on: HCC 2998
UACC-257 = tested on: UACC-257
OVCAR-4 = tested on: OVCAR-4
NCI/ADR-RES = tested on: NCI/ADR-RES
EKVX = tested on: EKVX
A549 = tested on: A549
UACC-62 = tested on: UACC-62
CAKI-1 = tested on: CAKI-1
NCI-H522 = tested on: NCI-H522
T47D = tested on: T47D
OVCAR-3 = tested on: OVCAR-3
KM12 = tested on: KM12
MDA-MB-231 = tested on: MDA-MB-231
U-251 = tested on: U-251
TK-10 = tested on: TK-10

COc1ccc(/C=C2\C[C@H]3[C@@H]4CC=C5C[C@@H](OC(C)=O)CC[C@]5(C)[C@H]4CC[C@]3(C)C2=O)cc1OC
GI50 (IGROV-1): > 100 µM (inactive)
GI50 (SK-MEL-2): 31.1 µM (inactive)
GI50 (ACHN): 49.5 µM (inactive)
GI50 (HOP-92): 31.7 µM (inactive)
GI50 (HCT-116): 38.8 µM (inactive)
GI50 (SW-620): > 100 µM (inactive)
GI50 (SNB-19): 54.8 µM (inactive)
GI50 (A498): 33 µM (inactive)
GI50 (M14): 66.4 µM (inactive)
GI50 (K562): 7.96 µM (inactive)
GI50 (HCT-15): 68.9 µM
GI50 (DU-145): > 100 µM (inactive)
GI50 (NCI-H226): 48.2 µM (inactive)
GI50 (PC-3): 55.1 µM (inactive)
GI50 (UO-31): 12.2 µM (inactive)
GI50 (Hs-578T): 58.6 µM (inactive)
GI50 (CCRF-CEM): 37 µM (inactive)
GI50 (MCF7): 38.4 µM (inactive)
GI50 (LOX IMVI): 42.9 µM (inactive)
GI50 (786-0): 38.7 µM (inactive)
GI50 (BT-549): 63.1 µM (inactive)
GI50 (SN12C): 42.3 µM (inactive)
GI50 (MOLT-4): 5.9 µM (inactive)
GI50 (NCI-H460): 33.9 µM (inactive)
GI50 (NCI-H23): 70 µM (inactive)
GI50 (MDA-N): 39.9 µM (inactive)
GI50 (HL-60): 16.7 µM (inactive)
GI50 (SNB-75): > 100 µM (inactive)
GI50 (SF-268): 86.7 µM (inactive)
GI50 (SR): 24.7 µM (inactive)
GI50 (HT-29): 41.2 µM (inactive)
GI50 (Malme-3M): 34.7 µM (inactive)
GI50 (OVCAR-8): 40.6 µM (inactive)
GI50 (MDA-MB-435): 48.4 µM (inactive)
GI50 (RXF 393): 69.5 µM (inactive)
GI50 (SF-539): > 100 µM (inactive)
GI50 (SF-295): 0.47 µM (active)
GI50 (RPMI-8226): 11.3 µM (inactive)
GI50 (OVCAR-5): 41 µM (inactive)
GI50 (SK-MEL-5): 10.6 µM (inactive)
GI50 (SK-MEL-28): > 100 µM (inactive)
GI50 (COLO 205): 24.3 µM (inactive)
GI50 (HOP-62): 0.815 µM (active)
GI50 (HCC 2998): 58.3 µM (inactive)
GI50 (UACC-257): 19.8 µM (inactive)
GI50 (OVCAR-4): 63.4 µM (inactive)
GI50 (NCI/ADR-RES): 80.9 µM (inactive)
GI50 (EKVX): 15.7 µM (inactive)
GI50 (A549): 28.5 µM (inactive)
GI50 (UACC-62): > 100 µM (inactive)
GI50 (CAKI-1): 22.5 µM (inactive)
GI50 (NCI-H522): 23.5 µM (inactive)
GI50 (T47D): 35.7 µM (inactive)
GI50 (OVCAR-3): > 100 µM (inactive)
GI50 (KM12): 0.971 µM (active)

Cc1ccc2c(=O)c(C(=O)NNC(=S)NC3CCCCC3)c[nH]c2n1
GI50 (IGROV-1): 35.6 µM (inactive)
GI50 (SK-MEL-2): 65.9 µM (inactive)
GI50 (ACHN): 96.4 µM (inactive)
GI50 (MDA-MB-231): 52.7 µM (inactive)
GI50 (HCT-116): 99.5 µM (inactive)
GI50 (SW-620): 40.6 µM (inactive)
GI50 (SNB-19): > 100 µM (inactive)
GI50 (A498): > 100 µM (inactive)
GI50 (M14): 53.2 µM (inactive)
GI50 (K562): 30.6 µM (inactive)
GI50 (HCT-15): > 100 µM
GI50 (DU-145): > 100 µM (inactive)
GI50 (NCI-H226): 23.9 µM (inactive)
GI50 (U-251): 65.9 µM (inactive)
GI50 (PC-3): 45.4 µM (inactive)
GI50 (UO-31): > 100 µM (inactive)
GI50 (Hs-578T): 64.1 µM (inactive)
GI50 (CCRF-CEM): 99.5 µM (inactive)
GI50 (MCF7): 83.6 µM (inactive)
GI50 (LOX IMVI): 51.3 µM (inactive)
GI50 (786-0): > 100 µM (inactive)
GI50 (BT-549): 71.3 µM (inactive)
GI50 (SN12C): 78.7 µM (inactive)
GI50 (MOLT-4): 32.7 µM (inactive)
GI50 (NCI-H460): 80 µM (inactive)
GI50 (NCI-H23): 94.8 µM (inactive)
GI50 (MDA-N): 31.6 µM (inactive)
GI50 (HL-60): 46.9 µM (inactive)
GI50 (SF-268): 96.8 µM (inactive)
GI50 (HT-29): 53.1 µM (inactive)
GI50 (Malme-3M): 65.8 µM (inactive)
GI50 (OVCAR-8): > 100 µM (inactive)
GI50 (TK-10): > 100 µM (inactive)
GI50 (MDA-MB-435): 30.1 µM (inactive)
GI50 (RXF 393): > 100 µM (inactive)
GI50 (SF-295): 56.8 µM (inactive)
GI50 (RPMI-8226): 42.8 µM (inactive)
GI50 (OVCAR-5): > 100 µM (inactive)
GI50 (SK-MEL-5): 33.7 µM (inactive)
GI50 (SK-MEL-28): 77.8 µM (inactive)
GI50 (COLO 205): 64.6 µM (inactive)
GI50 (HOP-62): 68.1 µM (inactive)
GI50 (UACC-257): > 100 µM (inactive)
GI50 (OVCAR-4): 78.9 µM (inactive)
GI50 (NCI/ADR-RES): > 100 µM (inactive)
GI50 (EKVX): 68.9 µM (inactive)
GI50 (A549): > 100 µM (inactive)
GI50 (UACC-62): 62.4 µM (inactive)
GI50 (CAKI-1): 59.2 µM (inactive)
GI50 (NCI-H522): 51.6 µM (inactive)
GI50 (T47D): 46.9 µM (inactive)
GI50 (OVCAR-3): 71.8 µM (inactive)
GI50 (KM12): 56.8 µM (inactive)

NCCNCCCCCCNC(=O)c1cccc2cc3ccccc3nc12
GI50 (IGROV-1): 3.9 µM (inactive)
GI50 (SK-MEL-2): 2.87 µM (inactive)
GI50 (ACHN): 2.28 µM (inactive)
GI50 (MDA-MB-231): 2.34 µM (inactive)
GI50 (HOP-92): 2.24 µM (inactive)
GI50 (HCT-116): 2.15 µM (inactive)
GI50 (SW-620): 1.49 µM (inactive)
GI50 (SNB-19): 2.67 µM (inactive)
GI50 (A498): 2.43 µM (inactive)
GI50 (M14): 1.92 µM (inactive)
GI50 (K562): 2.06 µM (inactive)
GI50 (HCT-15): 12.6 µM
GI50 (DU-145): 0.632 µM (active)
GI50 (NCI-H226): 1.95 µM (inactive)
GI50 (U-251): 1.64 µM (inactive)
GI50 (PC-3): 2.99 µM (inactive)
GI50 (UO-31): 5.66 µM (inactive)
GI50 (Hs-578T): 1.88 µM (inactive)
GI50 (CCRF-CEM): 1.03 µM (active)
GI50 (MCF7): 1.1 µM (active)
GI50 (LOX IMVI): 1.47 µM (inactive)
GI50 (786-0): 1.36 µM (inactive)
GI50 (BT-549): 11.4 µM (inactive)
GI50 (SN12C): 2.42 µM (inactive)
GI50 (MOLT-4): 0.838 µM (active)
GI50 (NCI-H460): 0.871 µM (active)
GI50 (NCI-H23): 2.07 µM (inactive)
GI50 (MDA-N): 2.7 µM (inactive)
GI50 (HL-60): 1.39 µM (inactive)
GI50 (SNB-75): 3.94 µM (inactive)
GI50 (SF-268): 2.72 µM (inactive)
GI50 (HT-29): 1.59 µM (inactive)
GI50 (Malme-3M): 3.94 µM (inactive)
GI50 (OVCAR-8): 2.03 µM (inactive)
GI50 (TK-10): 8.51 µM (inactive)
GI50 (MDA-MB-435): 3.59 µM (inactive)
GI50 (RXF 393): 3.95 µM (inactive)
GI50 (SF-539): 1.93 µM (inactive)
GI50 (SF-295): 3.6 µM (inactive)
GI50 (RPMI-8226): 2.01 µM (inactive)
GI50 (OVCAR-5): 4.02 µM (inactive)
GI50 (SK-MEL-5): 3.61 µM (inactive)
GI50 (SK-MEL-28): 5.65 µM (inactive)
GI50 (COLO 205): 2.75 µM (inactive)
GI50 (HOP-62): 2 µM (inactive)
GI50 (HCC 2998): 2.14 µM (inactive)
GI50 (UACC-257): 6.1 µM (inactive)
GI50 (OVCAR-4): 2.02 µM (inactive)
GI50 (NCI/ADR-RES): 17.9 µM (inactive)
GI50 (EKVX): 8.59 µM (inactive)
GI50 (A549): 1.7 µM (inactive)
GI50 (UACC-62): 2.01 µM (inactive)
GI50 (CAKI-1): 4.78 µM (inactive)
GI50 (NCI-H522): 1.42 µM (inactive)
GI50 (T47D): 5.13 µM (inactive)
GI50 (OVCAR-3): 2.51 µM (inactive)
GI50 (KM12): 2 µM (inactive)
